According to patent US20040029823A1, “Antisense oligonucleotide compositions and methods for the modulation of JNK proteins” (priority 1997, published 2004):
Strand notation (5' to 3'): a small letter for the sugar, then the base; units joined by * are phosphorothioate-linked, units joined directly phosphodiester-linked; [ ] holds rarer units or linkages, { } end groups; capitals alone tell only the bases. Where a SMILES comes first, the peptide text is derived from it. The star is where a group is joined. e = 2'-O-(2-methoxyethyl) (MOE); [5mC] = 5-methylcytosine; Cbz = O=C(OCc1ccccc1)*; d = 2'-deoxy (DNA); CH2F = FC*

Tests used:
Assay type in all cases: cell-based, human
JNK1 mRNA = experiment: Northern assay of JNK1 mRNA expression in A549 cells; details: for RNA % Control / RNA % Inhibition: 300 nM for 20 hours then 200 nM for 4 hours
Protocol: (§1) In order to evaluate the activity of potential JNK-modulating oligonucleotides, human lung carcinoma cell line A549 (American Type Culture Collection, Rockville, Md. No. ATCC CCL-185) cells or other cell lines as indicated in the Examples, were grown and treated with oligonucleotides or control solutions as detailed below. After harvesting, cellular extracts were prepared and examined for specific JNK mRNA levels or JNK protein levels (i.e., Northern or Western assays, respectively). In all cases, “% expression” refers to the amount of JNK-specific signal in an oligonucleotide-treated cell relative to an untreated cell (or a cell treated with a control solution that lacks oligonucleotide), and “% inhibition” is calculated as
100%−% Expression =% Inhibition.
Northern Assays: The mRNA expression of each JNK protein was determined by using a nucleic acid probe specifically hybridizable thereto. Nucleic acid probes specific for JNK1, JNK2 and JNK3 are described in Examples 3, 4 and 5, respectively. The probes were radiolabelled by means well known in the art (see, e.g., Short Protocols in Molecular Biology, 2nd Ed., Ausubel et al., Eds., John Wiley & Sons, New York, 1992, pages 3-11 to 2-3-44 and 4-17 to 4-18; Ruth, Chapter 6 In: Methods in Molecular Biology, Vol. 26: Protocols for Oligonucleotide Conjugates, Agrawal, ed., Humana Press Inc., Totowa, N.J., 1994, pages 167-185; and Chapter 10 In: Molecular Cloning: A Laboratory Manual, 2nd Ed., Sambrook et al., Eds., pages 10.1-10.70). The blots were stripped and reprobed with a ^32P-labeled glyceraldehyde 3-phosphate dehydrogenase (G3PDH) probe (Clontech Laboratories, Inc., Palo Alto, Calif.) in order to confirm equal loading of RNA and to allow the levels of JNK transcripts to be normalized with regard to the G3PDH signals.
A549 cells were grown in T-75 flasks until 80-90% confluent. At this time, the cells were washed twice with 10 mL of media (DMEM), followed by the addition of 5 mL of DMEM containing 20 μg/mL of LIPOFECTIN™ (i.e., 1:1 (w/w) DOTMA/DOPE, Life Technologies, Gaithersburg, Md.; DOTMA=N-[1-(2,3-dioleyoxy)propyl]-N,N,N-trimethylammonium chloride; DOPE=dioleoyl phosphatidylethanolamine). The oligonucleotides were added from a 10 μM stock solution to a final concentration of 400 nM, and the two solutions were mixed by swirling the flasks. As a control, cells were treated with LIPOFECTIN™ without oligonucleotide under the same conditions and for the same times as the oligonucleotide-treated samples. After 4 hours at 37° C., the medium was replaced with fresh DMEM containing 10% serum. The cells were allowed to recover for 18 hours. Total cellular RNA was then extracted in guanidinium, subject to gel electrophoresis and transferred to a filter according to techniques known in the art (see, e.g., Chapter 7 In: Molecular Cloning: A Laboratory Manual, 2nd Ed., Sambrook et al., Eds., pages 7.1-7.87, and Short Protocols in Molecular Biology, 2nd Ed., Ausubel et al., Eds., John Wiley & Sons, New York, 1992, pages 2-24 to 2-30 and 4-14 to 4-29). Filters were typically hybridized overnight to a probe specific for the particular JNK gene of interest in hybridization buffer (25 mM KPO4, pH 7.4; 5×SSC; 5× Denhardt's solution, 100 μg/ml Salmon sperm DNA and 50% formamide) (Alahari et al., Nucl. Acids Res., 1993, 21, 4079). This was followed by two washes with 1×SSC, 0.1% SDS and two washes with 0.25×SSC, 0.1% SDS. Hybridizing bands were visualized by exposure to X-OMAT AR film and quantitated using a PHOSPHORIMAGER™ essentially according to the manufacturer's instructions (Molecular Dynamics, Sunnyvale, Calif.)
B. JNK1-specific probes: In initial screenings of a set of oligonucleotides derived from the JNK1 sequence (Table 2) for biological activity, a cDNA clone of JNK1 (Derijard et al., Cell, 1994, 76, 1025) was radiolabeled and used as a JNK1-specific probe in Northern blots. […]

JNK1 protein = experiment: Western assay of JNK1 protein levels in A549 cells; details: 300 nM for 20 hours then 200 nM for 4 hours
Protocol: as §1
Western Assays: A549 cells were grown and treated with oligonucleotides as described above. Cells were lysed, and protein extracts were electrophoresed (SDS-PAGE) and transferred to nitrocellulose filters by means known in the art (see, e.g., Chapter 18 In: Molecular Cloning: A Laboratory Manual, 2nd Ed., Sambrook et al., Eds., pages 18.34, 18.47-18.54 and 18.60-18.75)). The amount of each JNK protein was determined by using a primary antibody that specifically recognizes the appropriate JNK protein. The primary antibodies specific for each JNK protein are described in the appropriate Examples. The primary antibodies were detected by means well known in the art (see, e.g., Short Protocols in Molecular Biology, 2nd Ed., Ausubel et al., Eds., John Wiley & Sons, New York, 1992, pages 10-33 to 10-35; and Chapter 18 In: Molecular Cloning: A Laboratory Manual, 2nd Ed., Sambrook et al., Eds., pages 18.1-18.75 and 18.86-18.88) and quantitated using a PHOSPHORIMAGER™ essentially according to the manufacturer's instructions (Molecular Dynamics, Sunnyvale, Calif.).
F. Western Assays: In order to assess the effect of oligonucleotides targeted to JNK1 mRNAs on JNK1 protein levels, Western assays were performed essentially as described above in Example 2, with the following exception(s) and/or modification(s). A primary antibody that specifically binds to JNK1 (catalog No. sc-474-G) was purchased from Santa Cruz Biotechnology, Inc. (Santa Cruz, Calif.; other JNK1-specific antibodies are available from StressGen Biotechnologies, Inc., Victoria, BC, Canada; and Research Diagnostics, Inc., Flanders, N.J.). In this experiment, cells were grown and treated with oligonucleotide at 300 nM for the initial 20 hours and then at 200 nM for 4 hours. At t=48 h, aliquots were removed for Northern and Western analyses, and fresh media was added to the cells. Aliquots for analysis were also taken at t=72 h. The samples from t=48 h and t=72 h were analyzed using the Northern and Western assays described above.

HUVEC = experiment: Apoptosis in HUVEC (percent hypodiploid cells, flow cytometry); details: HUVEC treated with JNK2 oligonucleotide plus the inhibitor
[1] = JNK1 mRNA time course, t=0 h after 4 hour treatment
[2] = JNK1 mRNA time course, time 272 h [sic] (t=72 h in text)
[3] = JNK1 mRNA, chemically modified oligonucleotides, dose 100 nM
[4] = JNK1 mRNA, chemically modified oligonucleotides, dose 400 nM

Row | Compound | Normalized % Control (JNK1 mRNA; [3]) | Normalized % Control (JNK1 mRNA; [4]) | RNA % Control (JNK1 mRNA; JNK1 mRNA, t = 48 h) | RNA % Control (JNK1 mRNA; JNK1 mRNA, t = 72 h) | Protein % Control (JNK1 protein; t = 48 h) | Protein % Control (JNK1 protein; t = 72 h) | RNA % Inhibition (JNK1 mRNA; JNK1 mRNA, t = 72 h) | Protein % Inhibition (JNK1 protein; t = 48 h) | Protein % Inhibition (JNK1 protein; t = 72 h) | RNA % Inhibition (JNK1 mRNA; JNK1 mRNA, t = 48 h) | other results
1 | 12539 (antisense CTCTCTGTAGGCCCGCTTGG; DNA, all phosphorothioate, methylation of C not given here) [compound 12539] | 56.4% | 26.7% | 6.7% | 11.7% | 44.3% | 29.2% |  |  |  |  | Normalized % Control (JNK1 mRNA; JNK1 mRNA dose response, 50 nM): 70.3%; Normalized % Control (JNK1 mRNA; JNK1 mRNA dose response, 100 nM): 51.6%; Normalized % Control (JNK1 mRNA; JNK1 mRNA dose response, 200 nM): 22.4%; Normalized % Control (JNK1 mRNA; JNK1 mRNA dose response, 400 nM): 11.1%; % INHIBITION (JNK1 mRNA; [1]): 85.9%; Normalized % Control (JNK1 mRNA; [1]): 14.1%; % INHIBITION (JNK1 mRNA; JNK1 mRNA time course, t=4 h): 94.1%; Normalized % Control (JNK1 mRNA; JNK1 mRNA time course, t=4 h): 5.9%; % INHIBITION (JNK1 mRNA; JNK1 mRNA time course, t=12 h): 88.4%; Normalized % Control (JNK1 mRNA; JNK1 mRNA time course, t=12 h): 11.6%; % INHIBITION (JNK1 mRNA; JNK1 mRNA time course, t=48 h): 79.0%; Normalized % Control (JNK1 mRNA; JNK1 mRNA time course, t=48 h): 21.0%; % INHIBITION (JNK1 mRNA; [2]): 58.5%; Normalized % Control (JNK1 mRNA; [2]): 41.5%; % EXPRESSION (JNK1 mRNA; JNK1 mRNA, A549 cells, 400 nM oligonucleotide, relative to LIPOFECTIN-only control): 9%
2 | 15345 (antisense e[5mC]*eT*e[5mC]*eT*e[5mC]*eT*eG*eT*eA*eG*eG*e[5mC]*e[5mC]*e[5mC]*eG*e[5mC]*eT*eT*eG*eG) [compound 15345] | 95.4% | 89.1% | 70.3% | 187.4% | 105.0% | 87.8% | (0.0) % | (0.0) % | 12.2% |  | 
3 | 15347 (antisense CTCTCTGTAGGCCCGCTTGG; sugars from the 5' end e5 d9 e6, [5mC] at 1, 3, 5, 16, linkages o4 s10 o5 (s phosphorothioate, o phosphodiester), methylation of C not given here) [compound 15347] | 27.1% | 11.7% | 7.9% | 8.2% | 38.8% | 28.4% | 81.8% |  |  | 92.1% | inhibition of JNK1 mRNA expression (JNK1 mRNA; chemically modified derivatives of ISIS 12539, 400 nM (Table 5)): at least 88%
4 | 15348 (antisense CTCTCTGTAGGCCCGCTTGG; sugars from the 5' end e11 d9, [5mC] at 1, 3, 5, all phosphorothioate, methylation of C not given here) [compound 15348] | 30.4% | 32.9% | 24.3% | 28.0% | 58.3% | 41.7% | 72.0% | 41.7% | 58.3% | 75.7% | 
5 | 15349 (antisense CTCTCTGTAGGCCCGCTTGG; sugars from the 5' end d9 e11, [5mC] at 12, 13, 14, 16, all phosphorothioate, methylation of C not given here) [compound 15349] | 42.5% | 35.5% | 63.1% | 52.0% | 69.5% | 56.5% | 48.0% | 30.5% | 43.5% | 36.9% | 
6 | 15350 (antisense CTCTCTGTAGGCCCGCTTGG; sugars from the 5' end d9 e11, [5mC] at 12, 13, 14, 16, linkages s9 o10 (s phosphorothioate, o phosphodiester), methylation of C not given here) [compound 15350] | 71.1% | 41.3% | 49.2% | 54.4% | 71.7% | 58.4% | 45.6% | 28.3% | 41.6% | 50.0% | 
7 | 15351 (antisense CTCTCTGTAGGCCCGCTTGG; sugars from the 5' end e11 d9, [5mC] at 1, 3, 5, linkages o10 s9 (s phosphorothioate, o phosphodiester), methylation of C not given here) [compound 15351] | 45.1% | 39.8% | 26.9% | 46.1% | 52.4% | 37.0% | 53.9% |  |  | 73.1% | 
8 | C[C@@H]1C[C@@H]([C@H](O)CC2CC(=O)NC(=O)C2)C(=O)[C@@H](C)C1 [cyclohexamide, reference compound] |  |  |  |  |  |  |  |  |  |  | effect on JNK2 oligonucleotide-induced cell death (apoptosis) (HUVEC): no effect
9 | COC(=O)C[C@H](NC(=O)[C@H](C)NC(=O)[C@@H](NC(=O)OCc1ccccc1)C(C)C)C(=O)CF [z-FAD.fmk, z-VAD.fmk, reference compound] (Cbz-Val-Ala-Asp(OMe)-CH2F) |  |  |  |  |  |  |  |  |  |  | effect on JNK2 oligonucleotide-induced cell death (apoptosis) (HUVEC): decreased
